Source: publication PMC12595484, “Optimizing multifunctional fluorescent ligands for intracellular labeling” (Proceedings of the National Academy of Sciences of the …, 2025)

Experiments:
[1] = tested on: U2OS cells expressing HaloTag–H2B; test: Dye loading kinetics; assay type: cell-based; settings: 200 nM
Protocol: U2OS cell culture, labeling, and fluorescence microscopy. U2OS cells (ATCC) were cultured in Dulbecco's modified Eagle medium (DMEM, phenol red-free; Life Technologies) supplemented with 10% (v/v) fetal bovine serum (FBS, Life Technologies), 1 mM GlutaMAX (Life Technologies) and maintained at 37 °C in a humidified 5% (v/v) CO2 environment. These cell lines undergo regular mycoplasma testing by the Janelia Cell Culture Facility. U2OS cells stably expressing an integrated HaloTag–histone H2B fusion protein (U2OS.H2B.HaloTag) were used for nuclear imaging and imaged 18–24 h post-plating. […]
Fixed cells were then washed
3× in 1× PBS and incubated with Hoechst 33342 (5µg/mL) for 15 min at 22 °C as a nuclear counterstain. Airyscan imaging was performed on a Zeiss LSM 980 with Airyscan 2 confocal microscope using a Plan APO 63×/1.4 oil DIC M27 objective. The same acquisition settings were used for all constructs labeled with 13HTL–16HTL. These single plane images were bulk processed in ZEN Blue (Zeiss) with automatic Airyscan settings.
Dye loading kinetics. Live U2OS.H2B.HaloTag stable cells were labeled over a time course of 0–4 h with 200 nM of biotin-JF549-HaloTag ligand (13HTL), biotin-JF608-HaloTag ligand (14HTL), biotin-JF646-HaloTag ligand (15HTL), or biotin-JF635-HaloTag ligand (16HTL) at 37 °C. Cells were […]
then washed 3× with dye-free media, fixed with 4% paraformaldehyde in 0.1 M phosphate buffer, pH 7.4 for 15 min at 37 °C. Confocal imaging was performed on a Leica SP8 with an HC PL APO CS2 20×/0.75 immersion objective using the tunable white light laser ( WLL) to excite dyes at their λabs in constant power mode. Fluorescence was quantified as the average integrated density of background corrected nuclear signals from confocal image stack projections analyzed in Fiji;14 n = 100 nuclear signals per compound. […]
(IB) consisting of KCl (0.18 M), ethylene glycol-bis(β-aminoethyl ether)-N,N,N′,N′-tetraacetic acid (EGTA; 1 mM), 3-(N-morpholino)propanesulfonic acid (MOPS; 5 mM); the pH was adjusted to pH = 7.35 using KOH(aq).15 StrepTactin Microbeads (IBA Lifesciences, 6-5510-050) were used as capture reagents as these beads had lowest amount of background observed in our hands. […]
The post-bead supernatant and wash volumes were pooled and spun at 15,000 g for 12 min. […] The affinity capture pulldown efficiency was monitored using in-gel fluorescence. The msGFP signal from HaloTag-TEV-4×GS-msGFP-mito after cell lysis and SDS-PAGE was analyzed, in-gel, using a Bio-Rad Chemidoc MP imager (Bio-Rad) through GFP fluorescence excitation and emission filters. Data were quantified by densitometry using Fiji.14 Capture efficiency was […]

HaloTag protein = target: T1, HaloTag protein (Rhodococcus rhodochrous, UniProt P0A3G2, A155T/A167V/A172T/A224E/C128F/C176G/D78G/E160K/E257K/H272N/K175M/K195N/L47V/L88M/N227D/S58T/T264A/Y273L/Y87F); test: Absorbance/fluorescence increase upon HaloTag binding; assay type: biochemical; settings: HaloTag conjugate vs free ligand
T1 construct: made in house
T1 sequence (P0A3G2 other isoform, or with tags, fused parts or gaps with the stated changes): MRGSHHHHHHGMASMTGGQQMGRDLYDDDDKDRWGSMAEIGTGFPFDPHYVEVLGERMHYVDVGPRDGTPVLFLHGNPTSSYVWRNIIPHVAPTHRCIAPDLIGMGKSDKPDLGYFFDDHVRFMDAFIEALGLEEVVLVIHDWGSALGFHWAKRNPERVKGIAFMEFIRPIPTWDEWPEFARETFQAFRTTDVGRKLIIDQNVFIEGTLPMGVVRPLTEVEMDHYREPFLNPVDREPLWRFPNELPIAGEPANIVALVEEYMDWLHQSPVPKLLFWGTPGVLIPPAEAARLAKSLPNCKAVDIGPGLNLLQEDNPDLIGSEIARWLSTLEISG
Protocol: HaloTag protein purification. The bacterial expression vector pRSET-A (Invitrogen) was used to recombinantly express HaloTag (HT7; Promega).1 The soluble 6×His-Tagged HaloTag protein was affinity purified by immobilized metal affinity chromatography (IMAC) on a 5 -mL Fast Flow HiTrap Sepharose 6 column (Cytiva) with a 0–200 mM imidazole elution gradient using an Avant Protein Purification System (ÄKTA). A280 peak fractions were pooled, concentrated by a spin concentrator, and dialyzed 3× into tris-buffered saline (TBS). The amino acid sequence of HaloTag (HT7) expressed from pRSET-A is noted below; the annotated DNA and amino acid sequences […]
Spectroscopy of HaloTag ligands and HaloTag conjugates. […]
± 2 °C). Absorption spectra were recorded on a Cary Model 100 spectrometer (Agilent) using 1-cm path length 1.0-mL quartz microcuvettes from Starna Cells. Fluorescence spectra were recorded on a Cary Eclipse fluorometer (Varian) using 1-cm path length 3.5-mL quartz cuvettes (Starna Cells). […] An aliquot of HaloTag protein (1.5 equiv) was added, and the resulting mixture was incubated until a consistent absorbance signal was observed (60–120 min).
To measure the fold-increase of absorbance upon HaloTag binding, a “no HaloTag” control experiment was performed where an equivalent volume of TBS blank was added in place of the protein. […]

O=C(CCCCC1SCC2NC(=O)NC21)NCCOCCOCCNC(=O)C1C[N+](=c2ccc3c(-c4cc(C(=O)NCCOCCOCCCCCCCl)ccc4C(=O)[O-])c4ccc(N5CCC5)cc4oc-3c2)C1 (stereo not drawn) [13HTL, biotin–JF549–HaloTag ligand] was tested, and the “intracellular labeling over 4 h” value [1] was “negligible intracellular labeling”.
CC1(C)C2=CC(=[N+]3CC(C(=O)NCCOCCOCCNC(=O)CCCC[C@@H]4SC[C@@H]5NC(=O)N[C@@H]54)C3)C=CC2=C(c2cc(C(=O)NCCOCCOCCCCCCCl)ccc2C(=O)[O-])c2ccc(N3CCC3)cc21 (stereo partly drawn) [14HTL, biotin–JF608–HaloTag ligand] was tested, and the “time to maximal intensity” value [1] was 4 h.
In the case of C[Si]1(C)C2=CC(=[N+]3CC(C(=O)NCCOCCOCCNC(=O)CCCC[C@@H]4SC[C@@H]5NC(=O)N[C@@H]54)C3)C=CC2=C(c2cc(C(=O)NCCOCCOCCCCCCCl)ccc2C(=O)[O-])c2ccc(N3CCC3)cc21 (stereo partly drawn) [15HTL, biotin–JF646–HaloTag ligand], the “fluorogenicity upon HaloTag binding” value (HaloTag protein) is reported as 2.9 fold and the “time to maximal intensity” value [1] is reported as 1 h.
C[Si]1(C)C2=CC(=[N+]3CC(F)(C(=O)NCCOCCOCCNC(=O)CCCC[C@@H]4SC[C@@H]5NC(=O)N[C@@H]54)C3)C=CC2=C(c2cc(C(=O)NCCOCCOCCCCCCCl)ccc2C(=O)[O-])c2ccc(N3CC(F)C3)cc21 (stereo partly drawn) [16HTL, biotin–JF635–HaloTag ligand] was tested, and the “fluorogenicity upon HaloTag binding” value (HaloTag protein) was 17.6 fold and the “time to maximal intensity” value [1] was 1 h.
